Data set [1] is described as follows: In vivo biodistribution in B16/F1 xenograft-bearing nude mice. Also noted: species or system mouse. The note with it: NMRI-Foxn1nu/Foxn1nu, mouse, iv, 5 MBq, total radioactivity; for tissue uptake at 1 h: 1 h after i.v. injection; for tissue to tissue ratio at 1 h: Fig 3. How it is done: (§1) B16/F1 cells (3x10^6) in a volume of 150 μL 0.9% NaCl were inoculated subcutaneously on the right shoulder of NMRI-Foxn1^nu /Foxn1^nu mice (Janvier Labs, Saint-Berthevin, France). After 1–2 weeks of growth, tumor bearing mice were injected with approximately 5 MBq of ^68Ga-DOTA-NAPamide in a volume of 100 μL 0.9% NaCl into a lateral tail vein via a catheter. Mice were sacrificed and dissected 1 h after injection. The B16F1 tumor, blood, stomach, pancreas, small intestine, colon, liver, spleen, kidney, heart, lung, muscle and femur samples were weighed and uptake of radioactivity was measured by a gamma counter (Wallac 1470 Wizard, Perkin Elmer, Waltham, MA, USA). To determine the effect of unlabeled ligand on tumor uptake, either 50 pmol or 500 pmol non-labeled DOTA-NAPamide were co-injected.

The test system of data set [2] is MC1R-expressing B16/F1 tumor xenografts. The data set is described as above. Also noted: species or system mouse. How it is done: as §1
Data set [3] in a line: In vivo PET/MRI imaging of mice bearing B16/F1 tumors (SUV by VOI). Also noted: species or system mouse. The note with it: NMRI-Foxn1nu/Foxn1nu, mouse, B16/F1 tumor, iv, total radioactivity; for SUV: dynamic PET; for SUV at 1 h: 1 h post injection, n = 1. How it is done:
(§2) B16/F1 cells (3x10^6) in a volume of 150 μL 0.9% NaCl were inoculated subcutaneously on the right shoulder of NMRI-Foxn1^nu /Foxn1^nu mice (Janvier Labs, Saint-Berthevin, France). After 1–2 weeks of growth, tumor bearing mice were injected with approximately 15 MBq of ^68Ga-DOTA-NAPamide in a volume of approximately 150 μL 0.9% NaCl into a lateral tail vein via a catheter. Positron emission tomography (PET) / magnetic resonance imaging (MRI) (1 Tesla nanoScan PET/MRI Mediso, Budapest, Hungary) was performed at Berlin Experimental Radionuclide Imaging Center (BERIC), Charité –Universitätsmedizin Berlin. Anatomic MRI scans were acquired using a T2-weighted 2D fast spin echo sequence (T2 FSE 2D) with the following parameters: coronal sequentially, matrix 256x256x20 with dimensions 0.36x0.36x1.5mm^3, TR: 8695 ms, TE: 103 ms, and a flip angle of 180°. PET scans were performed for 90 min starting directly before intravenous injection of tracer. PET images were reconstructed from the raw data with the following image sequence: 6 x 10 s, 6 x 30 s, 5 x 60 s and 8 X 600 s. The tracer standardized uptake value (SUV) in the tumor tissue was determined by manual contouring of a volume of interest (VOI) of the PET images using PMOD 3.610 (PMOD Technologies, Zürich, Switzerland).

Data set [4] deals with B16/F1 tumors. Described as above. Also noted: species or system mouse. The note with it: dynamic PET, all tested conditions, after injection. As to the method: as §2
Data set [5] deals with T1, murine MC1R expressed in the B16/F1 cells (Mus musculus, UniProt Q01727).
T1 construct: endogenous in cells; host or cells: B16/F1 mouse melanoma cells (live, whole cells)
T1 sequence (Q01727 whole entry): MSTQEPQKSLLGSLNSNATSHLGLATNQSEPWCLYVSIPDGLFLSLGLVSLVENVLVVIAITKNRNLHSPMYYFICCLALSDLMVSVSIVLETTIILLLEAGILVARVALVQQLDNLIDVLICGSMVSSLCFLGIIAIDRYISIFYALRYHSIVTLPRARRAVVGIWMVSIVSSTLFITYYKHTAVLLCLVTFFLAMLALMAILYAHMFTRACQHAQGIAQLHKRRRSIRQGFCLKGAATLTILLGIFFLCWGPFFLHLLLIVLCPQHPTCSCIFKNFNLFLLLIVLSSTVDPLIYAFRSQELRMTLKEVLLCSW
The data set is described as follows: Competitive binding (ligand displacement) with 125I-NDP-MSH on whole B16/F1 cells. Conditions: displacement of 125I-NDP-MSH, n = 3. As to the method: [Nle^4,d-Phe^7]-melanocyte-stimulating hormone (NDP-MSH) was iodinated with Na^125I by the chloramine-T method and it was purified from unlabeled peptide by HPLC as described before. Saturation and competitive binding studies were performed with live cells. 40.000 B16/F1 cells were seeded per well into a 96-well flat bottom cell culture plate. For competitive binding, medium was removed and 50 μL of binding buffer (50 mM 4-(2-hydroxyethyl)-1-piperazineethanesulfonic acid (HEPES) pH 7.4, 5 mM MgCl2, 1 mM CaCl2, 0.5% BSA, protease inhibitor cocktail cOmplete [Roche Applied Science, Penzberg, Germany]) with increasing concentrations of non-radioactive peptide was added to the cells. Additionally, 50 μL binding buffer with 100,000 counts per minute (cpm) of ^125I-NDP-MSH was added. After 30 minutes of incubation at 37°C, cells were washed 4 times with cold washing buffer (50 mM Tris-HCl pH 7.4, 125 mM NaCl, 0.05% BSA). 100 μL 1 N NaOH was added to lyse cells. Lysates were transferred into vials and measured using a gamma counter (Wallac 1470 Wizard, PerkinElmer, Waltham, MA, USA). The saturation assay was performed by adding 100 μL of binding buffer with increasing amounts of ^125I-NDP-MSH to the cells in the presence or absence of 1 μM of unlabeled NDP-MSH.

Data set [6] concerns tumor. The note with it: 4 h p.i., 111In and 67Ga labels; cited from earlier work.
The mark [7] stands for this setting: B16/F1 cells, Fig 1B (impact of gallium chelation).

Where two headings read alike, the source gives them in different places.

Regarding `CCCC[C@H](NC(C)=O)C(=O)N[C@@H](CC(=O)O)C(=O)N[C@@H](Cc1c[nH]cn1)C(=O)N[C@H](Cc1ccccc1)C(=O)N[C@@H](CCCNC(=N)N)C(=O)N[C@@H](Cc1c[nH]c2ccccc12)C(=O)NCC(=O)N[C@@H](CCCCNC(=O)CN1CCN(CC(=O)O)CCN(CC(=O)O)CCN(CC(=O)O)CC1)C(N)=O` [68Ga-DOTA-NAPamide, metal not drawn], the tissue uptake at 1 h in data set [1] (B16/F1 tumor, HPLC-purified tracer, ~5 MBq, ± 95% CI, n = 7, read-out: tumor uptake) was 7 %ID/g; in data set [1] (B16/F1 tumor, non-purified tracer (standard procedure), ~5 MBq, ± 95% CI, n = 7, read-out: tumor uptake), 0.78 %ID/g; in data set [1] (all other tissues (except tumor and kidneys), mostly below, read-out: uptake in all other tissues (except tumor and kidneys)), < 0.5 %ID/g. Moreover, the tissue to tissue ratio at 1 h is > 15 in data set [1] (tumor / all other organs investigated, HPLC-purified tracer, read-out: tumor-to-tissue ratios for all other organs investigated) and 2.33 in data set [1] (tumor / kidney, HPLC-purified tracer, read-out: tumor-to-kidney ratio). Also, in data set [2] (500 pmol coinjected unlabeled peptide, 1 h), the “decrease in tumor uptake vs purified tracer alone” value is given as “approximately 6 fold”. The “increase in tumor uptake, purified vs non-purified” value in data set [2] (1 h post injection) is listed as “more than 8 fold”. Also, the tumor uptake is given as 7.0% ± 1.7% in data set [2] (HPLC-purified tracer, 1 h after i.v. injection, ~5 MBq, ± 95% CI, n = 7); 0.78% ± 0.55% in data set [2] (non-purified tracer (standard procedure), 1 h after i.v. injection, ~5 MBq, ± 95% CI, n = 7); 3.8% ± 3.6% in data set [2] (purified tracer + coinjection of 50 pmol (1,000-fold) cold DOTA-NAPamide, 1 h, Fig 4, n = 3, ± 95% CI); 1.1% ± 0.5% in data set [2] (purified tracer + coinjection of 500 pmol (10,000-fold) cold DOTA-NAPamide, 1 h, Fig 4, n = 3, ± 95% CI); 6.7% ± 1.9% in data set [2] (purified tracer alone, 5 MBq (~50 fmol), 1 h, Fig 4, n = 3, ± 95% CI). Besides, the kidney uptake in data set [2] (purified tracer, 1 h after i.v. injection, ± 95% CI) is recorded as 3.0% ± 0.6%; in data set [2] (standard procedure (non-purified), 1 h after i.v. injection, ± 95% CI), 4.6% ± 2.7%. Moreover, the SUV was 0.43 SUV in data set [3] (15 MBq, the other tumors (other three formulations), read-out: initial amount of radioactivity in the tumor (mean SUV)) and 0.63 SUV in data set [3] (animal with 1,000-fold excess of cold peptide mass, read-out: initial amount of radioactivity in the tumor (SUV)). Also, the SUV at 1 h in data set [3] (15 MBq, purified tracer) is 0.42 SUV; in data set [3] (15 MBq, unpurified tracer (standard procedure)), 0.119 SUV; in data set [3] (purified + 1,000-fold excess of cold peptide), 0.367 SUV; in data set [3] (purified + 10,000-fold excess of unlabeled peptide), 0.152 SUV. The “time to maximum tracer level in the tumors” value in data set [4] lay within 5 to 10 min.
By Ki is commonly meant the equilibrium dissociation constant of an inhibitor or competing ligand from its target. Higher therefore signals weaker binding. On to `CCCC[C@H](NC(C)=O)C(=O)N[C@@H](CC(=O)O)C(=O)N[C@@H](Cc1c[nH]cn1)C(=O)N[C@H](Cc1ccccc1)C(=O)N[C@@H](CCCNC(=N)N)C(=O)N[C@@H](Cc1c[nH]c2ccccc12)C(=O)NCC(=O)N[C@@H](CCCCNC(=O)CN1CCN(CC(=O)O)CCN(CC(=O)O)CCN(CC(=O)O)CC1)C(N)=O` [DOTA-NAPamide, Acetyl-Nle-Asp-His-D-Phe-Arg-Trp-Gly-Lys(DOTA)-NH2], for which the Ki in data set [5] (setting [7]) was 0.4 nM; in data set [5] (whole B16/F1 cells, Fig 1A), 0.37 nM. For the same compound, in data set [6], the tumor uptake is on record as 7.56% to 9.43%.
For “Ga-labeled DOTA-NAPamide: DOTA-NAPamide complexed with non-radioactive Ga (XDHFRWGK; Linear alpha-MSH analogue Ac-Nle-Asp-His-D-Phe-Arg-Trp-Gly-Lys(DOTA)-NH2: N-terminal acetyl; X1 = norleucine; D-Phe4; Lys8 side chain conjugated to DOTA chelating non-radioactive Ga; C-terminal amide)”, affinity in data set [5] (setting [7]) was put at a Ki of 0.43 nM.
